According to patent US20080188554A1, “METHODS OF TREATING AVIAN HYPERTENSION” (Regents of the University of California Office of …, priority 2006, published 2008):
Marks after values point to notes of the source that are not given here.

Key:
[1] = target: T1, mouse sEH (Mus musculus, UniProt P34914); details: compound as substrate, from Morisseau 2000; cited from earlier work
T1 sequence (P34914 1-554): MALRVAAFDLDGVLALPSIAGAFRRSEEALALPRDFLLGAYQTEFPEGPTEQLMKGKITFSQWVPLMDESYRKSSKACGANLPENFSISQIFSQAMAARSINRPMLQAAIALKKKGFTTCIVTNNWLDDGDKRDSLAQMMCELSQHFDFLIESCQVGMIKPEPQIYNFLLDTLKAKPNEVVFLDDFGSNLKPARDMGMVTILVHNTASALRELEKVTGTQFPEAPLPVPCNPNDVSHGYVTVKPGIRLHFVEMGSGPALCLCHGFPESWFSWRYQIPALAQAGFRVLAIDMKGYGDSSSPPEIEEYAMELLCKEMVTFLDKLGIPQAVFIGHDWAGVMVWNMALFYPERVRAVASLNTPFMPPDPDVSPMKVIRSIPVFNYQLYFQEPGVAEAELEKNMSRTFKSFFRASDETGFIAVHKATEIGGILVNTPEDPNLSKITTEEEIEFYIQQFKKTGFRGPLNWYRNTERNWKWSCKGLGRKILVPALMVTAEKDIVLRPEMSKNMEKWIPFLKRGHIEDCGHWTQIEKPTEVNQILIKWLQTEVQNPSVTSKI

[2] = target: Recombinant chicken sEH (Gallus gallus, UniProt Q45QT1); experiment: Non-radioactive epoxide hydrolase assay (HPLC-MS/MS), specific activity of substrates; format: biochemical; details: compound as substrate, 50 μM, 30° C., 10 min
Method: The trans-9,10-epoxystearate was purchased (Sigma-Aldrich). A 5 mM solution of each substrate was made in ethanol for the EETs and methanol for the epoxystearate. The substrate solution (1 μL) was added to 100 μL of enzyme preparation in sodium phosphate buffer (0.1 M, pH 7.4) containing 0.1 mg/mL of BSA ([S]final=50 μM). The enzyme was incubated with the substrate at 30° C. for 10 min, and the reaction quenched by addition of 400 μL of methanol. The products were analyzed by HPLC-MS/MS as previously described (Newman, J. W. et al., J. Lipid Res. 43:1563-1578 (2002)) with the following exceptions. A 2.0×20 mm, 3-μm Luna C18 Mercury MS column (Phenomenex, Torrance, Calif.) was used with a 350 μL/min isocratic flow of […] (vol/vol/vol) acetonitrile/water/methanol with 0.1% glacial acetic acid for 2.5 min. Assays were performed in triplicate.

[3] = target: T2, sEH (Homo sapiens, UniProt P34913); experiment: sEH inhibition, general statements on earlier tests; format: biochemical; details: statement in words, no method given
T2 sequence (P34913 1-555): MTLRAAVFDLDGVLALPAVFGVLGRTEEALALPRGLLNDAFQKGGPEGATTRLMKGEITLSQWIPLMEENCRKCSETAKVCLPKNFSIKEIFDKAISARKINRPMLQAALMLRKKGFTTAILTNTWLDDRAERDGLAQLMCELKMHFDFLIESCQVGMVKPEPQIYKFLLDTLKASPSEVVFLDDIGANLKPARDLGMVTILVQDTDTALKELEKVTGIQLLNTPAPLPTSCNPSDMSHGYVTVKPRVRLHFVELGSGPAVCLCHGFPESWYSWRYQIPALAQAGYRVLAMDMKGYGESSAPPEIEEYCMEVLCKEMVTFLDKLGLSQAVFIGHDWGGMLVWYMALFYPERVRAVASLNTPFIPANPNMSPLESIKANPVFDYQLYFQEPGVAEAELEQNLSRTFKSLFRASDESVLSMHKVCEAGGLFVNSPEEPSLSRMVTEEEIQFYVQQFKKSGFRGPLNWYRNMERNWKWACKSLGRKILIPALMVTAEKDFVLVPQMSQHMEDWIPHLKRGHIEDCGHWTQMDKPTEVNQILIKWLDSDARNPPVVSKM

Sequence of Recombinant chicken sEH (Q45QT1 entry or part of it): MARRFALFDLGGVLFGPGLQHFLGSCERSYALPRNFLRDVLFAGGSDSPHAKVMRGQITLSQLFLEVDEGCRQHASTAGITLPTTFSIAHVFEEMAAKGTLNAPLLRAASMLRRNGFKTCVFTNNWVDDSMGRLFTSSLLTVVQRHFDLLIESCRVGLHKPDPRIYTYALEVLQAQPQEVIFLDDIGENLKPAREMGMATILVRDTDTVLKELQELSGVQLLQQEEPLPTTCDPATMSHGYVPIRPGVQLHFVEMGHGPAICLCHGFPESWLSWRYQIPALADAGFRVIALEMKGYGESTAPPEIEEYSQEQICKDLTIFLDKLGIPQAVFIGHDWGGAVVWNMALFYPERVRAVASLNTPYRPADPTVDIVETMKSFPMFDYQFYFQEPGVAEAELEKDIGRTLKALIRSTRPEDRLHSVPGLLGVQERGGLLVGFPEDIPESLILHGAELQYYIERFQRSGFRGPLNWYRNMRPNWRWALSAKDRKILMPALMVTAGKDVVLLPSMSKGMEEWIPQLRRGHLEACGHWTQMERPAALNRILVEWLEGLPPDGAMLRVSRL

| Structure (SMILES) | Specific activity [1] | Specific activity [2] [nmol/min/mg] | Activity as inhibitor of sEH [3] |
| --- | --- | --- | --- |
| CCCCCCCCC1OC1CCCCCCCC(=O)O (stereo not drawn) [cis-9,10-epoxystearic acid] | 1139 ± 34* nmol · min^−1 · mg^−1 | 3.1 ± 0.2 | – |
| CCCCCCCCCCCCNC(=O)NC12CC3CC(CC(C3)C1)C2 [ADU, N-Adamantyl-N′-dodecyl urea] | – | – | particularly high activity |
